Assay results reported in patent publication US11097016B2, “Use of lyso-Gb1 as druggable target” (Centogene GmbH, priority 2016, dated 2021).
“Also recorded” adds a separate entry of the source.

Assays:
[1] = Histopathological evaluation (H&E) of spleen, liver and femur; format: in vivo, C57BL/6JRj mice; settings: data not shown
Method: After removal, organs were fixed in formalin for 24 h and transferred into 70% ethanol. To ensure a non-biased comparison the same parts of organs were analysed by HISTALIM (Montpellier, France). The samples were processed on the Peloris automaton (Leica, Wetzlar, Germany) according to the 4 h program validated for mouse organs. The samples were embedded in paraffin wax according to HISTALIM procedures. For the liver, spleen and femur samples, a section (3-5 μm thickness) was prepared and deposited preferentially on Superfrost+slide (to ensure tissue adhesion) to be stained according to a validated hematoxylin/eosin (H&E) protocol. All the slides were digitalised with the Nanozoomer scanner (Hamamatsu Photonics, Hamamatsu, Japan) in conditions bright field conditions, with the objective×20, without Z stack. Slides were examined by a senior histopathologist to assess the toxicological effects of lyso-Gb1 on the tested mice.

[2] = Lyso-Gb1 determination in organs (LC/MRM-MS); format: in vivo, C57BL/6JRj mice
Method: After extraction from the animal, the organs were immediately deep-frozen in liquid nitrogen. The samples were lyophilized (Alpha 2-4 LSC, Christ, Osterode am Harz, GER) and powdered with mortar and pistil. Fractions of 2 to 5 mg powder were established in round bottom tubes. On top of the powder, 50 μl per mg powder extraction solution was added and the sample was incubated for 5 minutes at 37° C. under agitation. Subsequently, the samples were frozen in liquid nitrogen for 30 seconds and sonicated with boost function for 5 minutes. The incubation, freezing and sonication steps were repeated 6 times. At the end the mixtures were vortexed and aliquots of 25 μl suspension were used for the lyso-Gb1 determination. Each sample was supplemented with 100 μl Internal Standard (lyso-Gb2, 200 ng/ml) and 250 μl ethanol. The samples were cooled at 4° C. for 1 h to precipitate the membrane proteins and spun in a benchtop centrifuge for 3 minutes at 14.5 krpm. The volume of each sample was quantitatively transferred to a 96-well filter plate and further processed as described above.
(§1) LC-MRM-MS analyses of the lyso-Gb1 for both DBS and organ extracts were performed using a Waters Acquity UPLC (Waters, UK) coupled with an ABSciex 5500 TripleQuad mass spectrometer (ABSciex, Darmstadt, Germany). Chromatographic run was performed on a C8 column with pore size of 3 mM (ACE columns, Germany) using a flow rate of 0.9 ml/min preheated at 60° C. The 10 μl extract were injected on the column and the compounds were eluted using a linear gradient from 40% A (50 mM formic acid in water) to 100% B (50 mM formic acid in acetone:acetonitrile vol. 1:1). Upstream from UPLC a 3:1 flow splitter was added. The following MRM transitions were monitored: 624.3-282.2 for the internal standard (with DP of 30V, CE of 38 V and CXP of 10 V) and 462.3→282.2 for lyso-Gb1 (with DP of 28V, CE of 30 V and CXP of 10 V). MRM-MS analyses were performed in positive ion mode using the following parameters: CUR gas 40 psi, IS voltage 5.5 kV, CAD 8 psi, cone temperature 500° C., GS 1 45 psi, GS2 60 psi, EP 10 V. For all batches analyzed a standard curve was measured using 7 dilutions of lyso-Gb1 in ethanol (concentrations in ng/ml: 0; 5; 10; 50; 100; 200; 1000).
After 4 weeks from treatment start the organs of the mice were subjected to lyso-Gb1 analysis.

[3] = Blood count analysis for systemic damage; format: in vivo, C57BL/6JRj mice
Method: Mice were exsanguinated via the retrobulbar venous plexus under isoflurane anesthesia before being sacrificed by overdose inhalation. 200 μL EDTA samples of whole blood were drawn from each animal to analyze […], leukocyte count, erythrocyte count, hemoglobin (Hb), hematocrit (PCV=packed cell volume, Hct), mean cell volume (MCV), mean cell Hb (MCH), mean cell Hb concentration. (MCHC) and platelet count (PLT) (IDEXX Bioresearch, Ludwigsburg, Germany).
3.1 It was tested whether the high lyso-Gb1 levels caused systemic damage to the animals. Such systemic damage was assessed by blood count analysis.

[4] = Organ weight analysis; format: in vivo, C57BL/6JRj mice
Method: (§2) Blood sampling was carried out using Li-heparine blood obtained from the lateral tail vein. At each sampling time point 2 aliquots of 20 μl were transferred to dried blood spot filter cards (Centogene AG, Rostock, Germany). After the last sampling time point the mice were sacrificed by inhalation of an overdose of isoflurane and organs were removed, frozen and collected for future examinations. Where applicable, organs were intersected. Half of the organ was immediately frozen in liquid nitrogen. The other half was formalin-fixed and paraffin-embedded for histologic analysis (Histalim, Montpellier, France).
3.2 As anemia is a frequent result of enlarged spleen, another hallmark of Gaucher disease, an organ weight analysis, a Western blot analysis and size and color analysis of the spleen was carried out. The results thereof are shown in FIG. 4A, FIG. 4B and FIG. 4C.

[5] = test system: F4/80 and CD68; assay: Western blot of inflammatory tissue markers F4/80 and CD68 in spleen and liver; format: in vivo, C57BL/6JRj mice
Method: Livers and spleens were homogenized in RIPA buffer containing proteinase and phosphatase inhibitor (Roche, Mannheim, GER). Lysates were centrifuged at 15,000 g, 4° C. for 15 min to remove insoluble pellet, and supernatant was collected. Protein concentration was measured using Pierce BCA Protein Assay Kit (Thermo Fisher Scientific, Waltham, Mass.). Typically, […] protein was loaded for electrophoresis on a 4%-15% precast Tris-glycine gradient gel (BioRad, Mannheim, GER). The protein was subsequently transferred to a nitrocellulose membrane by semidry transfer apparatus (BioRad, Munich, GER) for immunodetection analysis. The target proteins were detected by rat anti F4/80 (1:500, Biolegend, San Diego, Calif.), rat anti-CD68 [FA-11] (1:200 abcam, Cambridge, UK) mouse anti GAPDH (1:10,000, abcam, Cambridge, UK), each in TBST supplemented with 5% skim milk powder (Sigma Aldrich, Munich, GER). Fluorescent conjugate secondary antibodies were applied for the detection with a Li-Cor Odyssey imaging system (Bad Homburg, GER).
In order to investigate the molecular changes of both spleen and liver in terms of tissue inflammation macrophagic marker proteins F4/80 and CD68 were analysed.

[6] = test system: CD68 and F4/80 positive cells; assay: Immunohistochemistry of spleen sections (anti-CD68, anti-F4/80); format: in vivo, C57BL/6JRj mice
Method: For immunohistochemistry 5 μm paraffin sections of the spleens of 8-week treated mice were subjected to rat anti-CD68 clone FA-11 (1:100, Bio-Rad Laboratories, Raleigh, N.C., USA) and rat anti-mouse F4/80 Cl:A3-1 (1:100, BioLegend, San Diego, Calif., USA). Sections were then deparaffinised, rehydrated and pre-treated in the microwaves in 0.1 M citrate buffer (5 min 850 W and 5 min 340 W) followed by consecutive incubation with 3% H2O2 in PBS to block endogenous peroxidases for 30 min, then 3% bovine serum albumin with 1.5% normal goat serum (NGS) in PBS for 1 h to block nonspecific epitopes. Subsequently, sections were exposed to the primary antibody in 3% NGS/PBS overnight at 4° C. Depending on the primary antibody and after washing in PBS, the sections were sequentially incubated for 1 h with the secondary anti-rat or anti-mouse IgG (1:200; Vector, Burlingame, Calif., USA), streptavidin-biotin-complex (ABC) reagent for 1 h (Vectastain-Elite; Vector, Burlingame, Calif., USA) and then finally visualised with 3,-3,-diaminobenzidine (DAB, Sigma, Munich, Germany), which was activated with H2O2. Sections were counterstained with hematoxylin, dehydrated, mounted with DePeX and coverslipped.

[7] = Lyso-Gb1 level in blood (dried blood spots, LC/MRM-MS) upon continuous subcutaneous administration; format: in vivo, C57BL/6JRj mice
Method: (§3) Animal experimental procedures were carried out at Pharmacelsus GmbH, Saarbrücken, Germany. Adult male C57BL/6JRj mice (10 weeks old, purchased from Janvier Labs, France) were housed in a temperature-controlled room (20-24° C.) and maintained in a 12 h light/12 h dark cycle. Food (Ssniff® R/M-H, 10 mm) and water were provided ad libitum.
All experimental procedures were approved by and conducted in accordance with the regulations of the local Animal Welfare authorities. The lyso-Gb1 stock solution was prepared in DMSO and propylene glycol at 37° C. with ultrasonic bath treatment for 10 min. Subcutaneous administration of lyso-Gb1 (Matreya LLC, USA) was achieved by the use of ALZET pumps implanted in the back of their necks and set to a flow rate of 2.64 μl/day in order to obtain a daily dosage of 10 mg lyso-Gb1/kg body weight. The pumps were loaded with the stock solution and primed prior to implantation according to the manufacturer's instructions.
as §2
3 punches of 3.2 mm in diameter were cut using a DBS puncher (Perkin Elmer LAS, Germany) and placed in a 2.2 ml round bottom tube (Eppendorf, Germany). 50 μl extraction solution (DMSO: water, 1:1) and 100 μI internal standard solution with the standard being dissolved in ethanol were added on top of the paper punches. Samples were mixed for 30 seconds and placed in an incubator (Heidolph, Schwabach, Germany) for 30 minutes at 37° C. under agitation at 700 rpm. […]
as §1, with “Chromatographic run was performed on a C8 column with pore size of 3 mM (ACE columns, Germany) using a flow rate of 0.9 ml/min preheated at 60° C. The 10 μl extract were injected on the column and the compounds were eluted using a linear gradient from 40% A (50 mM formic acid in water) to 100% B (50 mM formic acid in acetone:acetonitrile vol. 1:1). Upstream from UPLC a 3:1 flow splitter was added.” left out, “1000). […]” for “1000).”

[8] = Lyso-Gb1 in 24 hr urine (LC/MRM-MS); format: in vivo, C57BL/6JRj mice; settings: 6 weeks after treatment start
Method: 25 μL urine aliquots were added to 100 μL of internal standard and 250 μL ethanol. The samples were cooled to 4° C. for 1 h to precipitate the urine proteins, after which they were spun in a benchtop centrifuge for 3 minutes at 14,500 rpm. The volume of each sample was quantitatively transferred to a 96-well plate, and further processed as described above.
as §1, with “The 10 μl extract were injected on the column and the compounds were eluted using a linear gradient from 40% A (50 mM formic acid in water) to 100% B (50 mM formic acid in acetone:acetonitrile vol. 1:1). Upstream from UPLC a 3:1 flow splitter was added.” left out

[9] = General health, body weight and behaviour during treatment; format: in vivo, C57BL/6JRj mice
Method: as §3
Ten weeks old C57BL/6JRj mice were subcutaneously treated with high doses (10 mg*kg−1*day−1) of lyso-Gb1 for a period of up to 84 days (12 weeks).

[10] = test system: TNF-α and IL-1β; assay: Cytokine analysis in blood (ProcartaPlex Multiplex Immunoassay); format: in vivo, mice
Method: The ProcartaPlex® Multiplex Immunoassay (ebioscience, San Diego, Calif.) was carried out following the instructions of the provider. Differences between the animal groups were obtained using automated MAGPIX® analysis device software (Luminex, Austin, Tex.) including quality control criteria.

CCCCCCCCCCCCC/C=C/[C@@H](O)[C@@H](N)CO[C@@H]1O[C@H](CO)[C@@H](O)[C@H](O)[C@H]1O [lyso-Gb1, glucosylsphingosine]
H&E histological stain of spleen, liver and femur, vehicle vs lyso-Gb1 treated [1]: did not reveal significant abnormalities
organ with highest lyso-Gb1 levels ([2]; 4 weeks from treatment start): kidney and liver
lyso-Gb1 levels in peripheral organs (heart, kidney, liver, spleen) compared to control animals ([2]; 4 weeks from treatment start, 10 mg*kg^−1*day^−1): strongly elevated
increase of brain lyso-Gb1 ([2]; 4 weeks from treatment start, attributed to carryover of blood in tissue capillaries): 2 fold
crossing of the blood brain barrier ([2]; concluded from negligible increase in brain lyso-Gb1): not able to cross the blood brain barrier
Hb (hemoglobin) values ([3]; 4, 8 and 12 weeks, 2× SD below the baseline value at each time point): mild anemia; also recorded: mild anaemia
Hct (haematocrit) values ([3]; differed at 4 and 8 weeks after treatment initiation): significantly differed; also recorded: lowered
thrombocytopenia / white blood cell abnormalities ([3]; up to 12 weeks treatment): no thrombocytopenia or abnormalities in white blood cells
liver weight versus controls ([4]; 8 and 12 weeks): not statistically significantly different; also recorded: not statistically distinct from control animals
spleen weight versus controls ([4]; 8 and 12 weeks from treatment initiation): enlarged
liver size in subsequent experiment ([4]; lyso-Gb1 treatment started earlier (P20), data not shown): marked enlargement of the liver
size of heart, lung and kidney ([4]; mouse, in vivo): normal in size
F4/80 and CD68 protein levels in liver (Western blot) ([5]; liver): only mild changes
F4/80 and CD68 protein levels in spleen (Western blot) ([5]; spleen): pronounced increase; also recorded: elevated
number of CD68 and F4/80 positive cells in spleen sections in comparison to vehicle controls ([6]; paraffin sections from spleen): marked increase
CD68-immunoreactivity in spleen compared to vehicle controls ([6]; spleens of 8-week treated mice): strong increase
F4/80 immunoreactivity in spleen compared to vehicle controls ([6]; spleens of 8-week treated mice): increased
lyso-Gb1 levels in blood ([7]; 24 hrs after treatment start (data not shown)): strongly elevated
increase of blood lyso-Gb1 level compared to the vehicle-treated mice ([7]; after 4, 8 and 12 weeks, s.c. 10 mg/kg/day): more than 500 fold
lyso-Gb1 level in blood ([7]; after 4, 8 and 12 weeks, s.c. osmotic pump, 10 mg lyso-Gb1/kg body weight daily): 700 to 900 ng/mL
concentration at 4 weeks ([7]; male, C57BL/6JRj, mouse, whole blood (dried blood spots), sc, 10 mg/kg/day, 4 weeks after begin of treatment, s.c. 10 mg*kg−1*day−1): > 500 ng/mL
calculated excretion rate of lyso-Gb1 in urine [8]: 0.6 ng/min
behaviour ([9]; mouse, in vivo): no behavioral abnormalities
body weight / health status ([9]; throughout the experimental phase (up to 12 weeks)): did not lose weight
TNF-α and IL-1β in the blood [10]: slight elevation
upregulation of most investigated cytokines [10]: did not find significant upregulation
